Data as given in patent US9974806B2 (priority 2012, dated 2018).

System: Shiga toxins

## colloidal bismuth hydroxide gel [CBHG]
  cytotoxic activity on Vero cells: significant decrease
